Measured values taken from ChEMBL document CHEMBL1201862, “PubChem BioAssay data set” (2004).
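Growth conditions: 96-well plates. Treatment: test compound, 48 hours, 5 concentrations. Analysis: linear interpolation between bracketing concentrations; unreached endpoints set to highest concentration. The concentration for 50% growth inhibition is given as GI50.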 The source made the active and inactive calls. Rule as the data show it: active = GI50 up to about 1.1 µM and inactive = higher.

Tests used:
Assay in all cases: NCI anticancer screen, dose series, 48 h
[1] = system: UACC-257
[2] = system: SNB-19
[3] = system: SK-MEL-28
[4] = system: SR
[5] = system: UACC-62
[6] = system: HL-60
[7] = system: HOP-92
[8] = system: MDA-MB-435
[9] = system: RPMI-8226
[10] = system: U-251
[11] = system: DU-145
[12] = system: HCT-116
[13] = system: COLO 205
[14] = system: OVCAR-5
[15] = system: CAKI-1
[16] = system: SF-295
[17] = system: NCI-H522
[18] = system: HCT-15
[19] = system: BT-549
[20] = system: NCI/ADR-RES
[21] = system: SK-OV-3
[22] = system: OVCAR-8
[23] = system: MDA-MB-231
[24] = system: 786-0
[25] = system: ACHN
[26] = system: A498
[27] = system: K562
[28] = system: HOP-62
[29] = system: HCC 2998
[30] = system: LOX IMVI
[31] = system: KM12
[32] = system: OVCAR-3
[33] = system: SW-620
[34] = system: SF-539
[35] = system: SK-MEL-2
[36] = system: CCRF-CEM
[37] = system: MOLT-4
[38] = system: NCI-H460
[39] = system: NCI-H226
[40] = system: Hs-578T
[41] = system: Malme-3M
[42] = system: SK-MEL-5
[43] = system: NCI-H23
[44] = system: MDA-N
[45] = system: SN12C
[46] = system: OVCAR-4
[47] = system: UO-31
[48] = system: SNB-75
[49] = system: MCF7
[50] = system: HT-29
[51] = system: PC-3
[52] = system: T47D
[53] = system: EKVX
[54] = system: IGROV-1
[55] = system: A549
[56] = system: M14
[57] = system: RXF 393
[58] = system: SF-268
[59] = system: TK-10

SMILES: CN(C)c1ccc(/C=C/C=C(/C#N)c2ccccc2)cc1
- GI50 [1]: 40.7 µM (inactive)
- GI50 [2]: 30.1 µM (inactive)
- GI50 [3]: > 82.4 µM (inactive)
- GI50 [4]: 3.64 µM (inactive)
- GI50 [5]: 19.2 µM (inactive)
- GI50 [6]: 2.74 µM (inactive)
- GI50 [7]: 78.7 µM (inactive)
- GI50 [8]: 2 µM (inactive)
- GI50 [9]: 21.9 µM (inactive)
- GI50 [10]: 17.1 µM (inactive)
- GI50 [11]: 55.7 µM (inactive)
- GI50 [12]: 16.4 µM (inactive)
- GI50 [13]: 20.4 µM (inactive)
- GI50 [14]: > 62.7 µM (inactive)
- GI50 [15]: 33.5 µM (inactive)
- GI50 [16]: 26.8 µM (inactive)
- GI50 [17]: 10.5 µM (inactive)
- GI50 [18]: 6.87 µM
- GI50 [19]: > 100 µM (inactive)
- GI50 [20]: 6.92 µM (inactive)
- GI50 [21]: 34.8 µM (inactive)
- GI50 [22]: 33 µM (inactive)
- GI50 [23]: 37.8 µM (inactive)
- GI50 [24]: 28.1 µM (inactive)
- GI50 [25]: 34.4 µM (inactive)
- GI50 [26]: 24.3 µM (inactive)
- GI50 [27]: 4.22 µM (inactive)
- GI50 [28]: 19 µM (inactive)
- GI50 [29]: 30.3 µM (inactive)
- GI50 [30]: 11.2 µM (inactive)
- GI50 [31]: 4.8 µM (inactive)
- GI50 [32]: 9.91 µM (inactive)
- GI50 [33]: 6.34 µM (inactive)
- GI50 [34]: 16.4 µM (inactive)
- GI50 [35]: 13.7 µM (inactive)
- GI50 [36]: 22.3 µM (inactive)
- GI50 [37]: 11.8 µM (inactive)
- GI50 [38]: 25.5 µM (inactive)
- GI50 [39]: 53.1 µM (inactive)
- GI50 [40]: 21.9 µM (inactive)
- GI50 [41]: 14 µM (inactive)
- GI50 [42]: 14.5 µM (inactive)
- GI50 [43]: 36.9 µM (inactive)
- GI50 [44]: 1.94 µM (inactive)
- GI50 [45]: 45.4 µM (inactive)
- GI50 [46]: > 38.6 µM (inactive)
- GI50 [47]: > 46 µM (inactive)
- GI50 [48]: 28.4 µM (inactive)
- GI50 [49]: 17.7 µM (inactive)
- GI50 [50]: 7.57 µM (inactive)
- GI50 [51]: 39.3 µM (inactive)
- GI50 [52]: 9.57 µM (inactive)
- GI50 [53]: 55.2 µM (inactive)
- GI50 [54]: 21.4 µM (inactive)
- GI50 [55]: 32.1 µM (inactive)
- GI50 [56]: 15.8 µM (inactive)
- GI50 [57]: 36.8 µM (inactive)
- GI50 [58]: 37.3 µM (inactive)
- GI50 [59]: 42.8 µM (inactive)

SMILES: CN(CCCCN1CCCC1)CCCCN(C)C(=O)Cc1ccc(Cl)c(Cl)c1
- GI50 [1]: 2.52 µM (inactive)
- GI50 [2]: 19.3 µM (inactive)
- GI50 [3]: 2 µM (inactive)
- GI50 [4]: 2.59 µM (inactive)
- GI50 [5]: 3.66 µM (inactive)
- GI50 [6]: 17.5 µM (inactive)
- GI50 [7]: 2.88 µM (inactive)
- GI50 [8]: 2.26 µM (inactive)
- GI50 [9]: 5.33 µM (inactive)
- GI50 [10]: 13.6 µM (inactive)
- GI50 [11]: 25.2 µM (inactive)
- GI50 [12]: 14.3 µM (inactive)
- GI50 [13]: 7.8 µM (inactive)
- GI50 [14]: 21.9 µM (inactive)
- GI50 [15]: 19.5 µM (inactive)
- GI50 [16]: 19.5 µM (inactive)
- GI50 [17]: 11.5 µM (inactive)
- GI50 [18]: 21.1 µM
- GI50 [19]: 18.5 µM (inactive)
- GI50 [20]: > 100 µM (inactive)
- GI50 [21]: 23.6 µM (inactive)
- GI50 [22]: 21.3 µM (inactive)
- GI50 [23]: 10.1 µM (inactive)
- GI50 [24]: 12.3 µM (inactive)
- GI50 [25]: 20.7 µM (inactive)
- GI50 [26]: 17.1 µM (inactive)
- GI50 [27]: 2.91 µM (inactive)
- GI50 [28]: 16.3 µM (inactive)
- GI50 [29]: 5.09 µM (inactive)
- GI50 [30]: 10.6 µM (inactive)
- GI50 [31]: 13.1 µM (inactive)
- GI50 [32]: 18.2 µM (inactive)
- GI50 [33]: 18.8 µM (inactive)
- GI50 [34]: 9.29 µM (inactive)
- GI50 [35]: 6.07 µM (inactive)
- GI50 [36]: 6.22 µM (inactive)
- GI50 [37]: 4.54 µM (inactive)
- GI50 [38]: 14.8 µM (inactive)
- GI50 [39]: 23.7 µM (inactive)
- GI50 [40]: 19.5 µM (inactive)
- GI50 [41]: 17.9 µM (inactive)
- GI50 [42]: 6.43 µM (inactive)
- GI50 [43]: 17.9 µM (inactive)
- GI50 [44]: 3.56 µM (inactive)
- GI50 [45]: 19.1 µM (inactive)
- GI50 [46]: 17.6 µM (inactive)
- GI50 [47]: 1.71 µM (inactive)
- GI50 [48]: 15 µM (inactive)
- GI50 [49]: 14 µM (inactive)
- GI50 [50]: 3.85 µM (inactive)
- GI50 [51]: 16.8 µM (inactive)
- GI50 [52]: 20.2 µM (inactive)
- GI50 [53]: 20.5 µM (inactive)
- GI50 [54]: 18.2 µM (inactive)
- GI50 [55]: 14.4 µM (inactive)
- GI50 [56]: 17.2 µM (inactive)
- GI50 [57]: 11.7 µM (inactive)
- GI50 [58]: 17.2 µM (inactive)
- GI50 [59]: 18.2 µM (inactive)
